Assay results taken from patent publication US20130150399A1, “INHIBITORS OF THE UNFOLDED PROTEIN RESPONSE AND METHODS FOR THEIR USE” (The Board of Trustees of the Leland Stanford Junior …, priority 2006, published 2013).

Assays:
[1] = test system: RPMI 8226 myeloma cells; assay: Cell proliferation assay, RPMI 8226; format: cell-based, human; settings: dose-dependent
[2] = test system: caspase-3; assay: Cleavage of caspase-3, HT1080 cells; format: cell-based, human; settings: 2.5 μM
Method: Cells (2×10^6) were cultured in 10-cm dishes, collected using a cell scraper at 4° C., and lysed by addition of 150 μl cell lysis buffer [50 mM Tris pH 7.4, 150 mM NaCl, 10% glycerol, 0.5% Triton X-100. 0.5% NP-40, 2 mM Na3VO4, 20 mM beta-glycerophosphate, 10 mM NaF, 1 mM DTT, 1 mM PMSF). Lysates were centrifuged for 5 min at 10,000×g, and proteins (˜40 μg) were resolved by SDS-PAGE followed by semi-dry transfer to nitrocellulose membranes. Membranes were blocked in TBS-5% milk supplemented with 0.1% Tween-20. The blots were then probed overnight with relevant antibodies, washed, and incubated for 2 hours with species-specific secondary antibodies conjugated to horseradish peroxidase. After washing in block solution, immunoreactive material was detected by enhanced chemiluminescence (SuperSignal West Dura Extended, Pierce, Inc., Rockville, Ill.).
A. Effect of irestatin 9389 on PERK and ATF6 pathways. […] Protein lysates were analyzed by Western blot analysis using antisera specific for ATF6 (top), CHOP/GADD153 (middle) or actin (bottom). […] Cells were harvested, counted, and allowed to grow under normal culture conditions for 11-12 days. […] D. Quantification of clonogenic survival assay. […] F. Quantification of TUNEL-positive cells. […] Cells were harvested at the indicated times and counted by hemocytometer. Values represent the mean calculated from triplicate experiments+/−SEM. […]

Cc1csc(NC(=O)CSc2nc3c(c(C(F)(F)F)c2C#N)CCC3)n1 [Compound 9389]
growth of RPMI 8226 [1]: strongly inhibited the growth
cleavage of caspase-3 ([2]; 36 hours of hypoxia): stimulated cleavage of caspase-3
caspase-3 processing ([2]; normal oxygen conditions): no effect on caspase-3 processing
